Legend:
[1] = molecular target: insulin-like growth factor type 1 (IGF-1) receptor (Homo sapiens, UniProt P08069); experiment: Selectivity: IGF-1 receptor phosphorylation; assay type: cell-based; conditions: in the absence or presence of IGF-1
male db/db mice = experiment: Acute toxicity in db/db mice; assay type: in vivo; conditions: i.p., 300 mg/kg in PBS
Procedure: Compound 15 was administered in PBS vehicle to male db/db mice (i.p.) and male CD rats (p.o.) at 300 mg/kg, which is approximately 10 times its effective dose.

[2] = system: platelet-derived growth factor (PDGF) receptor; experiment: Selectivity: PDGF receptor phosphorylation; assay type: cell-based; conditions: in the absence or presence of PDGF
[3] = molecular target: T1, β-kinase domain of the human insulin receptor (CKD) (Homo sapiens, UniProt P06213); experiment: 32P-cytoplasmic kinase domain (CKD) autophosphorylation assay; assay type: biochemical; conditions: phosphorylation of CKD expressed as % of the vehicle level; 10 minutes at room temperature; compound concentration not given
T1 construct: The complete β-kinase domain of the human insulin receptor (CKD) was expressed in, and purified from, baculovirus; made in house
Outline: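 Baculovirus-expressed CKD (4.0 μg/ml) in 29 mM HEPES pH 7.6, 10 mM MgCl2, 2 mM MnCl2 with 50 μM ATP plus ^32P-ATP, 1% DMSO, 10 min at room temperature. EDTA stop, SDS-PAGE, CKD-band radioactivity by phosphorimaging or scintillation counting; activity as % of vehicle phosphorylation.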

[4] = system: GLUT4 in 3T3 L1 adipocytes; experiment: Immunofluorescence analysis of GLUT4 mobilization; assay type: cell-based; conditions: 56 μM Compound 15 alone, 1 hr at 37° C. (FIG. 6C)
Procedure: Immunofluorescence Analysis of GLUT4 Mobilization in 3T3 L1 Adipocytes Insulin-dependent transport of glucose into cells utilizes glucose transporter proteins, such as GLUT4. Stimulation with insulin causes these transporters to translocate from storage sites within the cell to the cell membrane, where they facilitate glucose entry. 3T3 L1 adipocytes were grown and differentiated as in Example 11, except that they were grown on a microscope chamber slide. The cells were serum-starved with 0.1% BSA in DMEM for 16 hrs and stimulated with 56 μM Compound 15 alone, 100 nM Insulin for 1 hr at 37° C. The cells were fixed with 3.5% paraformaldehyde for 5 min and permeabilized with 0.2% saponin in 1% BSA, TBS for 5 min followed by incubation with anti-GLUT4 antibody for 30 min at room temperature. The cells were extensively washed and incubated with FITC-conjugated secondary antibody for 30 min at room temperature.

CYP2D6 = CYP2D6 (Homo sapiens, UniProt P10635); experiment: P450 interactions: CYP2D6 inhibition; assay type: in vitro ADME; conditions: human cytochromes P450
Text: (§1) A major pathway for elimination of drugs from the body, which may limit their effectiveness, is the cytochrome P450 system of the liver.

CYP2C9 = CYP2C9 (Homo sapiens, UniProt P11712); experiment: P450 interactions: CYP2C9 inhibition; assay type: in vitro ADME; conditions: human cytochromes P450
Text: as §1

human insulin receptor = molecular target: T2, human insulin receptor (Homo sapiens, UniProt P06213); experiment: Whole-cell phosphorylation assay (3T3HIR cells); assay type: cell-based; conditions: 15 min, anti-phosphotyrosine Western, various concentrations (FIG. 2)
T2 construct: expressed in transfected cells; host or cells: NIH 3T3 (3T3HIR)
Procedure: Whole-cell Phosphorylation Assay:
The initial step in insulin signaling is phosphorylation of the insulin receptor in response to insulin binding. NIH 3T3 cells overexpressing human insulin receptor (3T3HIR) were grown for 2 days at a density of 2×10^5/ml cells in 6 well culture dishes in DMEM with 10% FBS and L-glutamine. Prior to the experiment the cells were serum-starved overnight with DMEM with 0.1% BSA. The following morning, the cells were washed with PBS and the medium was replaced with 150 mM NaCl, 1.7 mM KCl, 0.9 mM CaCl2, K2HPO4 (pH 7.4), to which were added either the experimental compounds, or their vehicle (DMSO). Insulin or its vehicle (0.01% BSA) was diluted in the assay buffer (containing test compound or vehicle, respectively) to a final concentration of 2.5 nM. After incubating for 15 min, the cells were washed with cold PBS twice and lysed in 50 mM Tris.HCl, pH 7.4 150 mM NaCl, 0.25% sodium deoxycholate, 1% NP-40, 1 mM EGTA, 1 mM PMSF, 1 mM Na3VO4, 1 mM NaF, 1 ug/ml each of Aprotinin, Leupeptin and Pepstatin. The cell lysates were clarified by centrifugation at 12000 rpm, and the supernatants were estimated for protein concentration. Total cell lysate ([…]) was boiled with 2× SDS-PAGE sample buffer for 3 min and loaded into 7.5% SDS-PAGE along with Amersham rainbow marker protein as a molecular weight standard. […]

Chain of CYP2C9 (P11712 whole entry): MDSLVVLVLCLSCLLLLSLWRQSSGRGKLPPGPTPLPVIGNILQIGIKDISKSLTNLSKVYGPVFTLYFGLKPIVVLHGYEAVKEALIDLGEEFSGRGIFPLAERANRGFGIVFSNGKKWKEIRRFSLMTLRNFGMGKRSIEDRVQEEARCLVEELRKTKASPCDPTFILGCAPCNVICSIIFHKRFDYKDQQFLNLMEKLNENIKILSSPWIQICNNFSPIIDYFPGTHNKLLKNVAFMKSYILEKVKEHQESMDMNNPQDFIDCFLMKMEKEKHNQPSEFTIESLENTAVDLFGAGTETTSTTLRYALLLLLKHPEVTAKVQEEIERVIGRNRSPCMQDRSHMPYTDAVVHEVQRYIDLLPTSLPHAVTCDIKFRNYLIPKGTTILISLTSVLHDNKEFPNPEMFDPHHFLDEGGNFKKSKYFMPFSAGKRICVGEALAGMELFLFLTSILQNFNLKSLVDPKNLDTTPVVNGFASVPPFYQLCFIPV
Chain of insulin-like growth factor type 1 (IGF-1) receptor (P08069 741-1367 limits assumed): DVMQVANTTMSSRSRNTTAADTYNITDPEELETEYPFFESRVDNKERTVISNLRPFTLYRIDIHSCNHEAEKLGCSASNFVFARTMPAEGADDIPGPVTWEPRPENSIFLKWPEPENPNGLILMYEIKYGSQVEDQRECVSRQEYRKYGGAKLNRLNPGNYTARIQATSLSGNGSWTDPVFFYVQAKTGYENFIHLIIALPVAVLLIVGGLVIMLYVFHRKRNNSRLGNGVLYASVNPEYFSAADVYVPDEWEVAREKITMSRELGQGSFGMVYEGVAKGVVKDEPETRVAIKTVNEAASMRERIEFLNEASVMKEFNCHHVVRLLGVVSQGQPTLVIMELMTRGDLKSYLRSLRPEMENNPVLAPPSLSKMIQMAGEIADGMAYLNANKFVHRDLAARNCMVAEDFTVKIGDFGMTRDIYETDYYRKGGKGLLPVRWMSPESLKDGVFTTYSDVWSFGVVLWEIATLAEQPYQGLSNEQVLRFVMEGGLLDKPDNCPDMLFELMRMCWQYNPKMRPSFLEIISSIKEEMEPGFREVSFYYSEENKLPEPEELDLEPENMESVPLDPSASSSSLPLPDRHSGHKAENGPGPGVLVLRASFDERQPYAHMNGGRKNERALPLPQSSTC
Chain of insulin-like growth factor type 1 (IGF-1) receptor (P08069 31-736 partner limits assumed): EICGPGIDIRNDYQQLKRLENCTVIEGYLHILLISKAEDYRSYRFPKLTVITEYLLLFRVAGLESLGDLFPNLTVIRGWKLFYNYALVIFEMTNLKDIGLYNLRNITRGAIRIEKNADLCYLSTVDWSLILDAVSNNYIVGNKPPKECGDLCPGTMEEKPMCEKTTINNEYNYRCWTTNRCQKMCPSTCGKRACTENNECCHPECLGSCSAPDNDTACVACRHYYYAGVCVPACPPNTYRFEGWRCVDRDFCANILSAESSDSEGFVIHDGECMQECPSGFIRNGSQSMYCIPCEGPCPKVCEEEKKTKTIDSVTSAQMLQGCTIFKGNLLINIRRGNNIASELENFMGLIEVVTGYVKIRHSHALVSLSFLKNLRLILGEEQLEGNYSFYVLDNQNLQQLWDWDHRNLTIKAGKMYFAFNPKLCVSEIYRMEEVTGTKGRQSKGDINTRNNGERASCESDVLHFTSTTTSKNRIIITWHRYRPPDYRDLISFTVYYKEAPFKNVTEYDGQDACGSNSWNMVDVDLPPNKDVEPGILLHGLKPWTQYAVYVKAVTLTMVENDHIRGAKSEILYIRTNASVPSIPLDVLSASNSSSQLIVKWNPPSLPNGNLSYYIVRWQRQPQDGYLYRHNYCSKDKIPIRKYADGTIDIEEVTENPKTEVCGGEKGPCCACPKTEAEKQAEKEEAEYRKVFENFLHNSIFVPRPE
T1 sequence (P06213 980-1382 limits assumed): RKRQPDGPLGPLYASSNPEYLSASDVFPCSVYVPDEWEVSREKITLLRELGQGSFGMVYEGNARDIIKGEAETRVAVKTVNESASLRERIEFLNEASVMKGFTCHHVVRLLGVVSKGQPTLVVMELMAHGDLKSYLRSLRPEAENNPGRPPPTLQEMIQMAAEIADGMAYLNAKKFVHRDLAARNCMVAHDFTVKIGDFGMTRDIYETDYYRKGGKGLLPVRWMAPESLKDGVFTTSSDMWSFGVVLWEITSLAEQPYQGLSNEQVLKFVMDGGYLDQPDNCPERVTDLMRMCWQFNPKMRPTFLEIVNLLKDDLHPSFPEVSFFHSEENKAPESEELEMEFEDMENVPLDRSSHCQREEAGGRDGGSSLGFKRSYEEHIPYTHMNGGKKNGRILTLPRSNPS
Chain of CYP2D6 (P10635 whole entry): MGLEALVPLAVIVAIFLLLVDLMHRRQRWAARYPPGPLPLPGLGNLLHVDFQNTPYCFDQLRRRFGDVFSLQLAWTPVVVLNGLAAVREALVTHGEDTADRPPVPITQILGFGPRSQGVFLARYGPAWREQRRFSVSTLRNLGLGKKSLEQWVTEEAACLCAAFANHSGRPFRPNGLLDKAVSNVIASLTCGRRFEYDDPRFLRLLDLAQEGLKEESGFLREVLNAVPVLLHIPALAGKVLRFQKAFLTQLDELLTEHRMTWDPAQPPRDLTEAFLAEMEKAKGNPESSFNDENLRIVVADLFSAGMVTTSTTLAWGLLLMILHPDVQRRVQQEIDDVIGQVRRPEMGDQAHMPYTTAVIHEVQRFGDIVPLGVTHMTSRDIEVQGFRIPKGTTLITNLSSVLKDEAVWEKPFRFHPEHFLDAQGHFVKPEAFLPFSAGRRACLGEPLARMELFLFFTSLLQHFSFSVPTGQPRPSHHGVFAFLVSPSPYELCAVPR
T2 sequence (P06213 763-1382 limits assumed): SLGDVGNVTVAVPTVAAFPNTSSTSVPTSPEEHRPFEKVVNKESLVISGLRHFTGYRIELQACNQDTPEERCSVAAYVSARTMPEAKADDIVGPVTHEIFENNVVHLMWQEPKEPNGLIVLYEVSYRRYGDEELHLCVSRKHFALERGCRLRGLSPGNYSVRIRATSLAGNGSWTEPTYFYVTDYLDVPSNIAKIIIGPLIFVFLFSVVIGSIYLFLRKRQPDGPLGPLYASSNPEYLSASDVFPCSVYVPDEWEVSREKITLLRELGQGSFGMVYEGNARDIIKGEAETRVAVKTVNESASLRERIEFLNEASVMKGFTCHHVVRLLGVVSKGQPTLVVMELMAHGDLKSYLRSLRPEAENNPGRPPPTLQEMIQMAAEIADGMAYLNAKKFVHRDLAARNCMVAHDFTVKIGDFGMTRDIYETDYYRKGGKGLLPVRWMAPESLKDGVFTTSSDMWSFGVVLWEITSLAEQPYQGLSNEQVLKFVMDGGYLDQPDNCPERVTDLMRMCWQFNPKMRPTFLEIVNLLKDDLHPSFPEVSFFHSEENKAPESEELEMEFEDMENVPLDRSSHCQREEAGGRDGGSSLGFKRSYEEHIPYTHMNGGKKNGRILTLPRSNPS
T2 sequence (P06213 28-758 partner limits assumed): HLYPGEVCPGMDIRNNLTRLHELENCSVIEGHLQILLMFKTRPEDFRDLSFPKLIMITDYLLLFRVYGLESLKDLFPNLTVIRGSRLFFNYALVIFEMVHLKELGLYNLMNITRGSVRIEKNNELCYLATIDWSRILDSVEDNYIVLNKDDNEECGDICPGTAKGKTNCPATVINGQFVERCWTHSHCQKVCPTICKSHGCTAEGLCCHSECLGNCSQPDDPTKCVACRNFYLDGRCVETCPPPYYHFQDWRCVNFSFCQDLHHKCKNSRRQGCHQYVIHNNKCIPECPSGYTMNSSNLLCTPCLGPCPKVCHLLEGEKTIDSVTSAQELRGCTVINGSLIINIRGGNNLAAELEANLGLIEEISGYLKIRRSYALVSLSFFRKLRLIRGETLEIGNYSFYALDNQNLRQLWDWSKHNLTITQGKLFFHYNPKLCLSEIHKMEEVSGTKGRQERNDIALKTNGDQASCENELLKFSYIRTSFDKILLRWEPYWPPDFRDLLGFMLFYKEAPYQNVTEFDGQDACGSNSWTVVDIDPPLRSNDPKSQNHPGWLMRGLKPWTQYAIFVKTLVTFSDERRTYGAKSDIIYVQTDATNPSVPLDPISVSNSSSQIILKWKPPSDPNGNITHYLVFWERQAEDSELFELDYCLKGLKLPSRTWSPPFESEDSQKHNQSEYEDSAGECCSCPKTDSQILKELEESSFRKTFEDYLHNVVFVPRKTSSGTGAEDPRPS

## O=C(Nc1ccc2c(O)cc(S(=O)(=O)Nc3cccc(S(=O)(=O)O)c3)cc2c1)Nc1ccc2c(O)cc(S(=O)(=O)Nc3cccc(S(=O)(=O)O)c3)cc2c1 [Compound 15, 3-{[(4-hydroxy-7-{[N-(5-hydroxy-7-{[(3-sulfophenyl)amino]sulfonyl}(2-naphthyl))carbamoyl]amino}-2-naphthyl)sulfonyl]amino}benzenesulfonic acid]
[1]
  phosphorylation of the IGF-1 receptor: not to increase the phosphorylation
Male db/db mice
  acute toxicity: No acute toxicity was seen
[2]
  phosphorylation of the PDGF receptor: not to increase the phosphorylation
[3]
  % Activity vs. Control: 125%
[4]
  GLUT4 translocation (immunofluorescence): produced apparent translocation of GLUT4 to the cell surface
CYP2D6
  inhibition of catalytic activity of CYP2D6: did not inhibit
CYP2C9
  inhibition of catalytic activity of CYP2C9: did not inhibit
Human insulin receptor
  autophosphorylation of the insulin receptor in whole cells: increase of autophosphorylation

— patent US7071231B2, “Naphthalene ureas as glucose uptake enhancers” (Telik, Inc., priority 1999, dated 2006)
